From patent publication US10196401B2, “Spiro-lactam NMDA receptor modulators and uses thereof” (Aptinyx Inc., priority 2016, dated 2019)

What was measured:
NMDAR2A = NMDAR2A (Homo sapiens, UniProt Q12879); assay: Potentiation of [3H]MK-801 binding, NMDAR2A; design: species or system rat; conditions: for Conclusion / % 1 mM Glycine: NMDAR2A binding profile; for % 1 mM Glycine: relative to 1 mM glycine; for potentiation of [3H]MK-801 binding, subtype preference in words: NR2A, FIG. 2 / FIG. 6
Description: (§1) Assays were conducted as described by Moskal et al., “GLYX-13: a monoclonal antibody-derived peptide that acts as an N-rnethyl-D-aspartate receptor modulator,” Neuropharmacology, 49, 1077-87, 2005. The potentiation of [^3H]MK-801 binding (5 nrM; 22.5 Ci/mmol) to well washed rat cortical membranes (200 μg) was measured under non-equilibrium conditions (15 min @ 25° C.) in the presence of increasing concentrations of Compound A.
(§2) Assays were conducted as described above in Example 5, by Moskal et al. (2005).

NMDAR2D = NMDAR2D (Homo sapiens, UniProt O15399+Q05586); assay: Potentiation of [3H]MK-801 binding, NMDAR2D; design: species or system rat; conditions: NMDAR2D binding profile, wild-type
Description: as §1, §2

Sequence of NMDAR2A (Q12879 23-1464, species assumed, other chains not shown): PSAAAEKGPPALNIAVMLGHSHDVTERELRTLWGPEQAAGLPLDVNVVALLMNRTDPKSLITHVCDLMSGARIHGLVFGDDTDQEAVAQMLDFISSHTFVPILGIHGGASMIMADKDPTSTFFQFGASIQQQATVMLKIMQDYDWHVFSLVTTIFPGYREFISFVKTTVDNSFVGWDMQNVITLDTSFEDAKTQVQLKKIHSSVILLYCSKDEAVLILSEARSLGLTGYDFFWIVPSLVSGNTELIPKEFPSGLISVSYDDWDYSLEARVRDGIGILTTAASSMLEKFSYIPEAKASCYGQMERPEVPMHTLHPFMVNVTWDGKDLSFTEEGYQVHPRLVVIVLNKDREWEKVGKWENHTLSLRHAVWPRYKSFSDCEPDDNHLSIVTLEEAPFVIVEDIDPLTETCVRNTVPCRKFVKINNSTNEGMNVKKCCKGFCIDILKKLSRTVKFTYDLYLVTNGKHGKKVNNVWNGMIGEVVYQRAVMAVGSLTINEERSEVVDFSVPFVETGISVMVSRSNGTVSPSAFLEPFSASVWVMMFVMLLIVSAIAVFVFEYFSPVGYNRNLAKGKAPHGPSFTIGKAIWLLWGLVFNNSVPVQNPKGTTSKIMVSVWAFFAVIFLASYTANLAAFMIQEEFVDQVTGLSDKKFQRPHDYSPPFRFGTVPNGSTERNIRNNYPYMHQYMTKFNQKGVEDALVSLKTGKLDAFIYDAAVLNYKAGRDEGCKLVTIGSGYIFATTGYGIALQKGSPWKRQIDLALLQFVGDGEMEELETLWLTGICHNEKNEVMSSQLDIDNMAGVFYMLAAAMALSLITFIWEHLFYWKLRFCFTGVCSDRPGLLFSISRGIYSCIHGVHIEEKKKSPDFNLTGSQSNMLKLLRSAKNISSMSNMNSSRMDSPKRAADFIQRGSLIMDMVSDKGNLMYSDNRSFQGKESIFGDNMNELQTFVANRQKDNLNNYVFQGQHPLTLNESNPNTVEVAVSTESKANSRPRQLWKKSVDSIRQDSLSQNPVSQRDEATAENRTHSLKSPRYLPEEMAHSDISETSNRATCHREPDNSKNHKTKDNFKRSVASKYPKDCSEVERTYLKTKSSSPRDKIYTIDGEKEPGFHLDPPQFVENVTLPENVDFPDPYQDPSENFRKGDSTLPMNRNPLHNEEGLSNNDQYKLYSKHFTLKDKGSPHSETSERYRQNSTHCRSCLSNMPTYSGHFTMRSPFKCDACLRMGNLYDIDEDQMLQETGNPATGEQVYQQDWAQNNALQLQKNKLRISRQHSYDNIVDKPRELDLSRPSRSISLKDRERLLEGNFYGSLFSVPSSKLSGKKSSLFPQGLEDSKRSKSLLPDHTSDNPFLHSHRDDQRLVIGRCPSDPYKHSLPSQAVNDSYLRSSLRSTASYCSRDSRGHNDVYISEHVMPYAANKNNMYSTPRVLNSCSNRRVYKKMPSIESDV
Sequence of NMDAR2D (O15399 28-1336, species assumed, other chains not shown): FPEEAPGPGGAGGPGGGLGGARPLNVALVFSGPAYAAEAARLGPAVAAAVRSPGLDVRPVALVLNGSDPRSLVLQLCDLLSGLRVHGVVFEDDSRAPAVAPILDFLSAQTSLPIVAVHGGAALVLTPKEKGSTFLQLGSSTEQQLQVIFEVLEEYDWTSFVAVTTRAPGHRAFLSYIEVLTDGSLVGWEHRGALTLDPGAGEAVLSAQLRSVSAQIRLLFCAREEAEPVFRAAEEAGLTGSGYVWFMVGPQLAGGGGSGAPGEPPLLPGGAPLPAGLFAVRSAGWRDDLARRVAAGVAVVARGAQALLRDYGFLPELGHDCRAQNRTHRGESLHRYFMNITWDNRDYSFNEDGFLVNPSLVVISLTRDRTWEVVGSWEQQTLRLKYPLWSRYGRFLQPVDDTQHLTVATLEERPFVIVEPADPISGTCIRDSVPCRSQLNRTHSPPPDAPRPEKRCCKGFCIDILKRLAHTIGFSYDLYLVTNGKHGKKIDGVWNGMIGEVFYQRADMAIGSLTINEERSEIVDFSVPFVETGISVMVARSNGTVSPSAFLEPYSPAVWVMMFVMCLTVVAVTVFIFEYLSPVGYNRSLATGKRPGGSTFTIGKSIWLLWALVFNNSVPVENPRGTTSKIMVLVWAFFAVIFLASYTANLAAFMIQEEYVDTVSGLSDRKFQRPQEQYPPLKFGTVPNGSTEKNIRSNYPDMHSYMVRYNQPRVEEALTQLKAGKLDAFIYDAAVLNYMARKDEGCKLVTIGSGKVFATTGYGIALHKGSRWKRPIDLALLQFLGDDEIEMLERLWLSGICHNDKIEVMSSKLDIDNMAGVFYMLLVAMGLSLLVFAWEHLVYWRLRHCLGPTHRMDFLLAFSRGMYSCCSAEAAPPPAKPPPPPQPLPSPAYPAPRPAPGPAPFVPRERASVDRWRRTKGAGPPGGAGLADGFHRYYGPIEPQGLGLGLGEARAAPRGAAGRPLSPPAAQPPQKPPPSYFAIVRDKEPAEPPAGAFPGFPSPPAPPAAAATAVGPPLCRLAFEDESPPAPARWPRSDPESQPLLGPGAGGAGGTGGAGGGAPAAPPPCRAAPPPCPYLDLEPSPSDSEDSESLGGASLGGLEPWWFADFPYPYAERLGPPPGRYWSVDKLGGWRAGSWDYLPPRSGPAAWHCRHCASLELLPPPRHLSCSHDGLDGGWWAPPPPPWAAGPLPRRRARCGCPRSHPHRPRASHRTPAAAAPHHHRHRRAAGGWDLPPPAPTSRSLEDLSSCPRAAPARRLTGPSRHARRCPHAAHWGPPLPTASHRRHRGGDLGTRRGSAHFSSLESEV

Structure (SMILES) | Conclusion (NMDAR2A) | % 1 mM Glycine (NMDAR2A) | potentiation of [3H]MK-801 binding, subtype preference in words (NMDAR2A) | EC50 (NMDAR2D)
CC(C)CN1CCC[C@]12CN([C@H](C(N)=O)[C@@H](C)O)C2=O [Compound A, (2S,3R)-3-hydroxy-2-((R)-5-isobutyl-1-oxo-2,5-diazaspiro[3.4]octan-2-yl)butanamide] | WT2A agonist | 47.42% | highly NR2A preferring | 
CC(C)CN1CCC[C@@]12CN([C@H](C(N)=O)[C@@H](C)O)C2=O [Compound B, (2S,3R)-3-hydroxy-2-((S)-5-isobutyl-1-oxo-2,5-diazaspiro[3.4]octan-2-yl)butanamide] | WT2A agonist | 24.48% | lower potency in NR2A and NR2C | 3.98 nM
